Measured values published in patent publication US9855268B2, “Triazolo[4,5-d]pyrimidine derivatives” (Merck Patent GmbH, priority 2013, dated 2018).
Counter-ions that a name gives are not always drawn.

Target: GCN2 (Homo sapiens, UniProt Q9P2K8)
Assay: GCN2 enzyme assay (TR-FRET Lanthascreen, GFP-eIF2alpha phosphorylation)
Format: biochemical
Details: 10 μM ATP, 80 nM GFP-eIF2a, 30 nM GCN2
Excerpt: GCN2: Assay Principle & Conditions
This assay can quantificate the activity of the serin kinase GCN2 (general control non-derepressible-2).
This kinase is involved in the stress metabolism of cells. It is activated upon starvation (amino acid depletion). Its natural substrate is eIF2a (eukaryotic initiation factor 2 alpha subunit), a translation factor, which gets activated (phosphorylated) by GCN2 in case of an amino acid bottleneck in the cells. This in turn leads to a halt of the protein synthesis. Inhibition of GCN2 results in stopping this mechanism: The cell can not stop protein production upon “starvation” stress.
The assay is run in two steps: the enzymatic reaction and the detection step. In the first step GCN2 is incubated with 10 μM ATP and 80 nM of the GFP-labelled substrate eIF2alpha at room temperature.
The enzymatic reaction is stopped by addition of EDTA. The amount of phosphorylated eIF2alpha is determined by TR-FRET (Lanthascreen): A complex is formed consisting of antibody and GFP labelled phospho-eIF2a, which allows a FRET upon exitation at 340 nm.
Final Concentrations in the Enzymatic Reaction

Sequence of GCN2 (Q9P2K8 whole entry, species assumed): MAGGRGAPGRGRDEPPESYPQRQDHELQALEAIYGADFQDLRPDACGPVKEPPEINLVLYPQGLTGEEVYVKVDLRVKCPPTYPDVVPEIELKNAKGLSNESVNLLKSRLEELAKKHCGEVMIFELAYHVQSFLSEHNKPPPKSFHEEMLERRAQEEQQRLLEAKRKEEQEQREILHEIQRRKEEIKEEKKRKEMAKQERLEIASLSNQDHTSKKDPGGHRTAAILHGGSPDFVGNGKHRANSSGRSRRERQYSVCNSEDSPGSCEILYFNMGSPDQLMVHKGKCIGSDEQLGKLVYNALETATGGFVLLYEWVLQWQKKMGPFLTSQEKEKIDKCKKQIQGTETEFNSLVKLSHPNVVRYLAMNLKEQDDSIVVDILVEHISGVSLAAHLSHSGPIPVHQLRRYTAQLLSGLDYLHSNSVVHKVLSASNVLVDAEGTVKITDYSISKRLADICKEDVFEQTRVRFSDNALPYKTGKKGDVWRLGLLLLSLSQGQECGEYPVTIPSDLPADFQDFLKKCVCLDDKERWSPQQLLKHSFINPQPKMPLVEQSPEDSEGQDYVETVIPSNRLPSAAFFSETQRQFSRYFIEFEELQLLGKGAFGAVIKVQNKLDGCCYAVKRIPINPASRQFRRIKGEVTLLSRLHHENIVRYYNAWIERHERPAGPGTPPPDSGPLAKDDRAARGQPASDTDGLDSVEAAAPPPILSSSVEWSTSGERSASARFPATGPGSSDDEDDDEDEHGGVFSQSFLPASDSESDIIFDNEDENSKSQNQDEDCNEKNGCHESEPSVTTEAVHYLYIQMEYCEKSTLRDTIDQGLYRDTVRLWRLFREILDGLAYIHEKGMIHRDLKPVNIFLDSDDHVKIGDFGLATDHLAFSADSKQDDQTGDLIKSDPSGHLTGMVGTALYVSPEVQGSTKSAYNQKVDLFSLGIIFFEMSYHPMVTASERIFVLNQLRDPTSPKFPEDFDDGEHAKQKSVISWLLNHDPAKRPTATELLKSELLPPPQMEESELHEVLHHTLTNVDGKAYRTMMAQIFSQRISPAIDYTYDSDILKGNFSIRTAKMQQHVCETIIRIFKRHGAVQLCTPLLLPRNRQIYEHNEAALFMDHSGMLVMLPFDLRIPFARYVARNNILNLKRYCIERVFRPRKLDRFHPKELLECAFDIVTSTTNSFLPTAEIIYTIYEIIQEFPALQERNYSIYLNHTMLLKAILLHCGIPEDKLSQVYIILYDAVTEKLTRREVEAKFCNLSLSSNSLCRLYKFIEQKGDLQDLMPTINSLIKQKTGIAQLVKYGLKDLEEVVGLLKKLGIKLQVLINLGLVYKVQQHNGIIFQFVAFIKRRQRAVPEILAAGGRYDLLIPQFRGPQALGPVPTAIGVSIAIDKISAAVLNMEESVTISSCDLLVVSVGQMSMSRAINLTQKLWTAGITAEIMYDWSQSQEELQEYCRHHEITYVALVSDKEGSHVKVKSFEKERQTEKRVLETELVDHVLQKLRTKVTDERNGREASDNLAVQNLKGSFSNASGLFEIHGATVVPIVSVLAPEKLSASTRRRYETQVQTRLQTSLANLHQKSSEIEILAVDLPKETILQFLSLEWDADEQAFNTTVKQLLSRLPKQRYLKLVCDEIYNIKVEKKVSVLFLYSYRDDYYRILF

SMILES | IC50
COc1ccc(-n2nnc3cnc(N[C@H]4CC[C@@H](O)C4)nc32)cc1 (relative stereo) [A27, cis-3-[3-(4-methoxy-phenyl)-3H-[1,2,3]triazolo[4,5-d]pyrimidin-5-ylamino]-cyclopentanol] | 1 to 5 µM
COc1ccc(-n2nnc3cnc(N[C@H]4CC[C@@H](N(C)C)C4)nc32)cc1 (relative stereo) [A108, (cis)-N-[3-(4-methoxy-phenyl)-3H-[1,2,3]triazolo[4,5-d]pyrimidin-5-yl]-N′,N′-dimethyl-cyclopentane-1,3-diamine] | < 1 µM
COc1ccc(-n2nnc3cnc(NC(C)C)nc32)cc1 [A2, Isopropyl-[3-(4-methoxy-phenyl)-3H-[1,2,3]triazolo[4,5-d]pyrimidin-5-yl]-amine] | < 1 µM
COc1ccc(-n2nnc3cnc(NC4CC(C)(C)NC(C)(C)C4)nc32)cc1 [A17, [3-(4-methoxy-phenyl)-3H-[1,2,3]triazolo[4,5-d]pyrimidin-5-yl]-(2,2,6,6-tetramethyl-piperidin-4-yl)-amine] | 5 to 10 µM
COCCOc1ccc(-n2nnc3cnc(NCCCc4ccccn4)nc32)cc1 [A68, {3-[4-(2-methoxy-ethoxy)-phenyl]-3H-[1,2,3]triazolo[4,5-d]pyrimidin-5-yl}-(3-pyridin-2-yl-propyl)-amine] | < 1 µM
Cc1ccc2cc(-n3nnc4cnc(N[C@@H]5CCN(C(N)=O)C5)nc43)ccc2n1 [A284, (R)-3-[3-(2-methyl-quinolin-6-yl)-3H-[1,2,3]triazolo[4,5-d]pyrimidin-5-ylamino]-pyrrolidine-1-carboxylic acid amide] | < 1 µM
COCCOc1ccc(-n2nnc3cnc(NCc4cnn(C)c4)nc32)cc1 [B6, {3-[4-(2-methoxy-ethoxy)-phenyl]-3H-[1,2,3]triazolo[4,5-d]pyrimidin-5-yl}-(1-methyl-1H-pyrazol-4-ylmethyl)-amine] | 1 to 5 µM
COc1ccc(-n2nnc3cnc(NC4CC(=O)N(C)C4)nc32)cc1 (stereo not drawn) [A20, 4-[3-(4-methoxy-phenyl)-3H-[1,2,3]triazolo[4,5-d]pyrimidin-5-ylamino]-1-methyl-pyrrolidin-2-one] | 1 to 5 µM
COc1ccc(-n2nnc3cnc(N[C@@H]4CCN(S(C)(=O)=O)C4)nc32)cc1 [A269a, ((R)-1-Methanesulfonyl-pyrrolidin-3-yl)-[3-(4-methoxy-phenyl)-3H-[1,2,3]triazolo[4,5-d]pyrimidin-5-yl]-amine] | < 1 µM
COc1ccc(-n2nnc3cnc(NC4CCS(=O)(=O)C4)nc32)cc1 (stereo not drawn) [A8, N-(1,1-dioxothiolan-3-yl)-3-(4-methoxyphenyl)triazolo[4,5-d]pyrimidin-5-amine] | < 1 µM
CNc1ncc2nnn(-c3ccc(OC)cc3)c2n1 [A14, [3-(4-methoxy-phenyl)-3H-[1,2,3]triazolo[4,5-d]pyrimidin-5-yl]-methyl-amine] | 1 to 5 µM
COc1ccc(-n2nnc3cnc(NC4CN(C(=O)CCN(C)C)C4)nc32)cc1 [A63, 3-dimethylamino-1-{3-[3-(4-methoxy-phenyl)-3H-[1,2,3]triazolo[4,5-d]pyrimidin-5-ylamino]-azetidin-1-yl}-propan-1-one] | < 1 µM
COc1ccc(-n2nnc3cnc(NC4CCCN(C(C)=O)C4)nc32)cc1 (stereo not drawn) [A42, 1-{3-[3-(4-methoxy-phenyl)-3H-[1,2,3]triazolo[4,5-d]pyrimidin-5-ylamino]-piperidin-1-yl}-ethanone] | < 1 µM
CCOc1ccc(-n2nnc3cnc(NCCc4cn[nH]c4)nc32)cc1 [B9, [3-(4-ethoxy-phenyl)-3H-[1,2,3]triazolo[4,5-d]pyrimidin-5-yl]-[2-(1H-pyrazol-4-yl)-ethyl]-amine] | < 1 µM
COc1ccc(-n2nnc3cnc(NC4C5CNCC54)nc32)cc1 (stereo not drawn) [A37, (3-aza-bicyclo[3.1.0]hex-6-yl)-[3-(4-methoxy-phenyl)-3H-[1,2,3]triazolo[4,5-d]pyrimidin-5-yl]-amine hydrochloride] | 5 to 10 µM
COc1ccc(-n2nnc3cnc(N[C@H]4C[C@@H](NC(=O)OC(C)(C)C)C4)nc32)cc1 [A30, {cis-3-[3-(4-methoxy-phenyl)-3H-[1,2,3]triazolo[4,5-d]pyrimidin-5-ylamino]-cyclobutyl}-carbamic acid tert-butyl ester] | < 1 µM
COc1ccc(-n2nnc3cnc(N[C@H]4CC[C@H](CNC(=O)OC(C)(C)C)CC4)nc32)cc1 [A33, {4-[3-(4-methoxy-phenyl)-3H-[1,2,3]triazolo[4,5-d]pyrimidin-5-ylamino]-cyclohexylmethyl}-carbamic acid tert-butyl ester] | 1 to 5 µM
COc1ccc(-n2nnc3cnc(NCCOCCN)nc32)cc1 [A74, [2-(2-amino-ethoxy)-ethyl]-[3-(4-methoxy-phenyl)-3H-[1,2,3]triazolo[4,5-d]-pyrimidin-5-yl]-amine formate] | 1 to 5 µM
N[C@H]1CC[C@H](Nc2ncc3nnn(-c4ccc(F)cc4)c3n2)CC1 [A75, N-[3-(4-fluoro-phenyl)-3H-[1,2,3]triazolo[4,5-d]pyrimidin-5-yl]-(trans)-cyclohexane-1,4-diamine] | < 1 µM

Now from value to compound:

IC50 | SMILES
< 1 µM | COc1ccc(-n2nnc3cnc(N[C@@H]4CCOC4)nc32)cc1 [A98, [3-(4-methoxy-phenyl)-3H-[1,2,3]triazolo[4,5-d]pyrimidin-5-yl]-(R)-tetrahydrofuran-3-yl-amine]
< 1 µM | COc1ccc(-n2nnc3cnc(NC(C)(C)C)nc32)cc1 [A7, tert-butyl-[3-(4-methoxy-phenyl)-3H-[1,2,3]triazolo[4,5-d]pyrimidin-5-yl]-amine]
1 to 5 µM | COc1ccc(-n2nnc3cnc(N[C@H]4CCN(C(=O)CN(C)C)C4)nc32)cc1 [A91, 2-dimethylamino-1-{(S)-3-[3-(4-methoxy-phenyl)-3H-[1,2,3]triazolo[4,5-d]-pyrimidin-5-ylamino]-pyrrolidin-1-yl}-ethanone formate]
< 1 µM | COc1ccc(-n2nnc3cnc(NC4CCC4)nc32)cc1 [A21, cyclobutyl-[3-(4-methoxy-phenyl)-3H-[1,2,3]triazolo[4,5-d]pyrimidin-5-yl]-amine]
< 1 µM | COc1ccc(-n2nnc3cnc(N[C@@H]4CC[C@@H](N5CCCC5=O)C4)nc32)cc1 [A291, 1-{(1R,3R)-3-[3-(4-methoxy-phenyl)-3H-[1,2,3]triazolo[4,5-d]pyrimidin-5-ylamino]-cyclopentyl}-pyrrolidin-2-one]
1 to 5 µM | COc1ccc(-n2nnc3cnc(N[C@H]4C[C@@H](N)C4)nc32)cc1 [A31, cis-N-[3-(4-methoxy-phenyl)-3H-[1,2,3]triazolo[4,5-d]pyrimidin-5-yl]-cyclobutane-1,3-diamine hydrochloride]
1 to 5 µM | COc1ccc(-n2nnc3cnc(NC4CCOCC4)nc32)cc1 [A3, [3-(4-methoxy-phenyl)-3H-[1,2,3]triazolo[4,5-d]pyrimidin-5-yl]-(tetrahydro-pyran-4-yl)-amine]
< 1 µM | N[C@H]1CC[C@H](Nc2ncc3nnn(-c4ccc(N5CCCC5=O)cc4)c3n2)CC1 [A71, 1-{4-[5-((trans)-4-amino-cyclohexylamino)-[1,2,3]triazolo[4,5-d]pyrimidin-3-yl]-phenyl}-pyrrolidin-2-one]
< 1 µM | O[C@@H]1CC[C@@H](Nc2ncc3nnn(-c4ccc(-c5cnn(Cc6cccnc6)c5)cc4)c3n2)C1 [A231, (1R,3R)-3-{3-[4-(1-pyridin-3-ylmethyl-1H-pyrazol-4-yl)-phenyl]-3H-[1,2,3]triazolo[4,5-d]pyrimidin-5-ylamino}-cyclopentanol]
< 1 µM | O=C(O)CCOc1ccc(-n2nnc3cnc(NCCCn4cc([N+](=O)[O-])cn4)nc32)cc1 [A46, 3-(4-{5-[3-(4-nitro-pyrazol-1-yl)-propylamino]-[1,2,3]triazolo[4,5-d]-pyrimidin-3-yl}-phenoxy)-propionic acid]
< 1 µM | COc1ccc(-n2nnc3cnc(N[C@@H]4CCN(C(=O)Cn5cccn5)C4)nc32)cc1 [A90, 1-{(R)-3-[3-(4-methoxy-phenyl)-3H-[1,2,3]triazolo[4,5-d]pyrimidin-5-ylamino]-pyrrolidin-1-yl}-2-pyrazol-1-yl-ethanone]
< 1 µM | COc1ccc(-n2nnc3cnc(NC4CCN(c5ccncc5)CC4)nc32)cc1 [A82, [3-(4-methoxy-phenyl)-3H-[1,2,3]triazolo[4,5-d]pyrimidin-5-yl]-(3,4,5,6-tetrahydro-2H-[1,4′]bipyridinyl-4-yl)-amine]
< 1 µM | COc1ccc(-n2nnc3cnc(NC4CCc5[nH]ncc5C4)nc32)cc1 (stereo not drawn) [A23, [3-(4-methoxy-phenyl)-3H-[1,2,3]triazolo[4,5-d]pyrimidin-5-yl]-(4,5,6,7-tetrahydro-1H-indazol-5-yl)-amine]
1 to 5 µM | Cn1cc(CNc2ncc3nnn(-c4ccc(Cl)c(F)c4)c3n2)cn1 [B4, [3-(4-chloro-3-fluoro-phenyl)-3H-[1,2,3]triazolo[4,5-d]pyrimidin-5-yl]-(1-methyl-1H-pyrazol-4-ylmethyl)-amine]
1 to 5 µM | N[C@H]1CC[C@H](Nc2ncc3nnn(-c4ccc(N5CCOCC5)cn4)c3n2)CC1 [A96, trans-N-[3-(5-morpholin-4-yl-pyridin-2-yl)-3H-[1,2,3]triazolo[4,5-d]pyrimidin-5-yl]-cyclohexane-1,4-diamine]
1 to 5 µM | COc1ccc(-n2nnc3cnc(NC4CCNC(=O)C4)nc32)cc1 (stereo not drawn) [A87, 4-[3-(4-methoxy-phenyl)-3H-[1,2,3]triazolo[4,5-d]pyrimidin-5-ylamino]-piperidin-2-one]
1 to 5 µM | COc1ccc(-n2nnc3cnc(NCCN4CCN(C)CC4)nc32)cc1 [A50, [3-(4-methoxy-phenyl)-3H-[1,2,3]triazolo[4,5-d]pyrimidin-5-yl]-[2-(4-methyl-piperazin-1-yl)-ethyl]-amine]
